These results are taken from US11414384B2, “P300/CBP hat inhibitors” (Constellation Pharmaceuticals, Inc., priority 2018, dated 2022).

Each structure is given as a SMILES string. pIC50: −log10 of the molar value. Like-named read-outs stand apart in the source and are kept apart here. Where only a bound is given, the exact number is not on record here.

The assay addresses p300 HAT domain (residues 1287-1666) (Homo sapiens (Human), UniProt Q09472). Kind of assay: p300 HAT SPA assay (scintillation proximity assay, acetylation of biotinylated H3(1-21) peptide). The format is biochemical. As to conditions: average of at least 2 replicate titrations. As for the experimental part: In a typical experiment the p300 HAT inhibitory activity of the compounds described herein was determined in accordance with the following experimental method.
The expressed protein was purified by Ni2+ affinity, followed by anion exchange chromatography. Appropriate fractions were pooled and buffer exchanged into 20 mM Hepes pH 7.5, 150 mM NaCl, and 1 mM TCEP.
35 μL of the reaction volume was transferred to a 384-well streptavidin FlashPlate (PerkinElmer) using a Bravo liquid handler (Velocity 11) and incubated for 1.5 hr at RT. […] Data were analyzed in Genedata to determine inhibitor IC50 values.
In general terms: In a scintillation proximity assay essentially only radioactivity close to the scintillant gives light.

[1] abbreviates: p300 HAT domain, read-out: P300 HAT SPA IC50.
The mark [2] stands for this setting: read-out: P300 HAT SPA IC50, p300 HAT domain.
[3] abbreviates: P300 HAT SPA IC50, p300 HAT domain.

Chain of p300 HAT domain (residues 1287-1666) (Q09472 1287-1666): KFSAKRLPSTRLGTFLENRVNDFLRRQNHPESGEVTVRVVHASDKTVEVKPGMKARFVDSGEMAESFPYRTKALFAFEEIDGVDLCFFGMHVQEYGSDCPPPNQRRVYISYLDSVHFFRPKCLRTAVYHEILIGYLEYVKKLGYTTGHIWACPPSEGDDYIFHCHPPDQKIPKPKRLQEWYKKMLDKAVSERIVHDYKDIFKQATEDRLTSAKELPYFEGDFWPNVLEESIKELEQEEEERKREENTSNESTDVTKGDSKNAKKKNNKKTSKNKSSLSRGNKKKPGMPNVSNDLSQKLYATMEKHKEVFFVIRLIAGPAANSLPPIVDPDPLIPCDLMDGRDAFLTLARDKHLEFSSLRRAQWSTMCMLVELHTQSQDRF

One may read the pIC50 as the negative decadic logarithm of the IC50, by convention in mol/L. Consider `O=C(c1c[nH]c2ccccc12)C(NCCc1ccc(Cl)cc1)C1CC1` (single isomer, unassigned) [24 Isomer 2], for which, under setting [1], the pIC50 was less than 4.22.

With `O=C(c1c[nH]c2ccccc12)C(NCCN1CCCCC1=O)c1ccccc1` (single isomer, unassigned) [41 Isomer 1], the pIC50 under setting [1] is less than 4.22.

For the molecule `O=C(c1c[nH]c2ccccc12)C(NCCc1ccc(Cl)cc1)c1ccccc1` (single isomer, unassigned) [5 Isomer 1], under setting [1], the pIC50 is 5.06.

For `COCCn1cc(-c2ccc3c(C(=O)C(NCCc4ccc(C(N)=O)cc4)c4ccccc4)c[nH]c3c2)cn1` (single isomer, unassigned) [183 Isomer 2], the pIC50 under setting [1] was 6.14.

Consider `O=C(c1c[nH]c2ccccc12)C(NCCc1ccccc1Cl)c1ccccc1` (single isomer, unassigned) [3 Isomer 1], for which the negative logarithm of the IC50 (pIC50) under setting [1] was less than 4.22.

Take `Cn1cc(-c2ccc3c(C(=O)C(NCCc4ccc(Cl)cc4)c4ccccc4)c[nH]c3c2)cn1` (single isomer, unassigned) [83 Isomer 1]: under setting [1], the pIC50 was 5.88.

With `CC(CNC(C(=O)c1c[nH]c2cc(-c3cnn(C)c3)ccc12)c1ccccc1)c1ccc(Cl)cc1` (single isomer, unassigned) [91 Isomer 1], the pIC50 under setting [1] is 5.43.

Consider `CC(CNC(C(=O)c1c[nH]c2cc(-c3cnn(C)c3)ccc12)c1ccccc1)c1ccc(Cl)cc1` (single isomer, unassigned) [91 Isomer 4], for which, under setting [1], the pIC50 was 6.87.

For the molecule `Cc1cccc2c(C(=O)C(NC(C)Cc3ccc(Cl)cc3Cl)c3ccccc3)c[nH]c12` (single isomer, unassigned) [68 Isomer 2], the pIC50 under setting [1] is less than 4.52.

Consider `N#Cc1ccc(CCNC(C(=O)c2c[nH]c3cc(CC(=O)O)ccc23)c2ccccc2)cc1` (single isomer, unassigned) [160 Isomer 2], for which the negative logarithm of the IC50 (pIC50) under setting [1] was 5.40.

As to `CCC(CNC(C(=O)c1c[nH]c2ccccc12)c1ccccc1)c1ccc(Cl)cc1` (single isomer, unassigned) [59 Isomer 3], the negative logarithm of the IC50 (pIC50) under setting [1] was less than 4.52.

As for `N#Cc1ccc(CCNC(C(=O)c2c[nH]c3cc(CC(=O)O)ccc23)c2ccccc2)cc1` (single isomer, unassigned) [160 Isomer 1], the pIC50 under setting [1] was less than 5.30.

As to `O=C(c1c[nH]c2cc(-c3ccncn3)ccc12)C(NCCc1ccc(Cl)cc1)c1ccccc1` (single isomer, unassigned) [111 Isomer 2], the pIC50 under setting [1] was 6.25.

For `CC(Cc1ccc(C(N)=O)cc1)NC(C(=O)c1c[nH]c2ccccc12)c1ccccc1` (single isomer, unassigned) [140 Isomer 1], the negative-log IC50 (pIC50) under setting [1] is less than 5.30.

Regarding `CC(Cc1ccc(Cl)cc1)NC(C(=O)c1c[nH]c2ccccc12)c1ccccc1` (single isomer, unassigned) [27 Isomer 2], the pIC50 under setting [1] is less than 4.22.

Consider `COCCn1cc(C(=O)C(NCCc2ccc(Cl)cc2)c2ccccc2)c2ccccc21` (single isomer, unassigned) [127 Isomer 2], for which the pIC50 under setting [2] is less than 4.22.

Regarding `Cn1cc(-c2ccc3c(C(=O)C(NCCc4ccc(C#N)cc4Cl)c4ccccc4)c[nH]c3c2)cn1` (single isomer, unassigned) [72 Isomer 2], under setting [1], the pIC50 is 7.37.

As to `CN(C)C(=O)c1ccc(CCNC(C(=O)c2c[nH]c3ccccc23)c2ccccc2)cc1` (single isomer, unassigned) [135 Isomer 1], the pIC50 under setting [1] is less than 4.22.

In the case of `COc1ccc(CCNC(C(=O)c2c[nH]c3c(C)cccc23)c2ccccc2)cc1` (single isomer, unassigned) [80 Isomer 1], the negative-log IC50 (pIC50) under setting [1] was 5.61.

As to `O=C(c1cn(CCO)c2ccccc12)C(NCCc1ccc(Cl)cc1)c1ccccc1` (single isomer, unassigned) [128 Isomer 2], under setting [3], the negative-log IC50 (pIC50) is 4.87.

Take `CN1CCN(c2ccc3c(C(=O)C(NCCc4ccc(F)cc4)c4ccccc4)c[nH]c3c2)CC1` (single isomer, unassigned) [123 Isomer 1]: the pIC50 under setting [1] is 5.12.

For `O=C(c1c[nH]c2ccccc12)C(NCCc1cn[nH]c1)c1ccccc1` (single isomer, unassigned) [34 Isomer 1], the negative-log IC50 (pIC50) under setting [1] was less than 4.22.

Regarding `O=C(c1c[nH]c2ccccc12)C(NCCN1CCCCC1=O)c1ccccc1` (single isomer, unassigned) [41 Isomer 2], the negative-log IC50 (pIC50) under setting [1] was less than 4.22.

With `NC(=O)c1ccc(CCNC(C(=O)c2c[nH]c3cc(-c4cnn(CCO)c4)ccc23)c2ccccc2)cc1` (single isomer, unassigned) [182 Isomer 2], the negative logarithm of the IC50 (pIC50) under setting [1] was 6.29.

Turning to `CNC(=O)c1ccc2c(C(=O)C(NCCc3ccc(Cl)cc3Cl)c3ccccc3)c[nH]c2c1` (single isomer, unassigned) [151 Isomer 1], under setting [1], the negative-log IC50 (pIC50) was 4.94.

As to `O=C(c1c[nH]c2ccccc12)C(NCCc1ccc(-c2c[nH]nn2)cc1)c1ccccc1` (single isomer, unassigned) [57 Isomer 1], the negative-log IC50 (pIC50) under setting [1] is less than 5.30.

For `CC(Cc1ccc(Cl)cc1)NC(C(=O)c1c[nH]c2cc(-c3cnn(C)c3)ccc12)c1ccccc1` (single isomer, unassigned) [92 Isomer 4], the pIC50 under setting [1] was 5.65.

Regarding `O=C(c1c[nH]c2cc(-n3cccn3)ccc12)C(NCCc1ccc(F)cc1)c1ccccc1` (single isomer, unassigned) [118 Isomer 1], under setting [1], the negative logarithm of the IC50 (pIC50) is less than 4.52.

On to `O=C(c1c[nH]c2cc(N3CCCC3=O)ccc12)C(NCCc1ccc(Cl)cc1)c1ccccc1` (single isomer, unassigned) [74 Isomer 1], for which, under setting [1], the pIC50 is 6.81.

Turning to `CCNC(=O)c1ccc2c(C(=O)C(NCC(C)c3ccc(C#N)cc3)c3ccccc3)c[nH]c2c1` (single isomer, unassigned) [75 Isomer 3], the negative logarithm of the IC50 (pIC50) under setting [1] is 6.35.

Turning to `C[C@H](NC(=O)c1ccc2c(C(=O)C(NCCc3ccc(C#N)cc3)c3ccccc3)c[nH]c2c1)C(F)(F)F` (single isomer, unassigned) [169 Isomer 1], under setting [1], the negative logarithm of the IC50 (pIC50) is 5.75.

In the case of `O=C(c1cn(CC(F)(F)F)c2ccccc12)C(NCCc1ccc(Cl)cc1)c1ccccc1` (single isomer, unassigned) [130 Isomer 2], the negative-log IC50 (pIC50) under setting [2] is less than 4.22.

Regarding `CC(CNC(C(=O)c1cnn2cc(-c3cnn(C)c3)ccc12)c1ccccc1)c1ccc(C#N)cc1` (single isomer, unassigned) [102 Isomer 1], the pIC50 under setting [1] was 5.73.

As for `O=C(c1c[nH]c2ccccc12)C(NCCc1ccc(F)cc1)c1ccccc1` (single isomer, unassigned) [22 Isomer 1], the pIC50 under setting [1] is less than 4.22.

`O=C(c1cn(CCO)c2ccccc12)C(NCCc1ccc(Cl)cc1)c1ccccc1` (single isomer, unassigned) [128 Isomer 1] had a negative logarithm of the IC50 (pIC50) under setting [3] of 4.38.

For `CN(C)c1ccc(CCNC(C(=O)c2c[nH]c3ccccc23)c2ccccc2)cc1` (single isomer, unassigned) [39 Isomer 1], the pIC50 under setting [1] is less than 4.22.

For the molecule `COCCn1cc(-c2ccc3c(C(=O)C(NCCc4ccc(C(N)=O)cc4)c4ccccc4)c[nH]c3c2)cn1` (single isomer, unassigned) [183 Isomer 1], under setting [1], the negative logarithm of the IC50 (pIC50) was less than 5.30.

For the molecule `NS(=O)(=O)c1ccc(CCNC(C(=O)c2c[nH]c3cc(C(F)(F)F)ccc23)c2ccccc2)cc1` (single isomer, unassigned) [1 Isomer 1], the pIC50 under setting [1] was 4.85.

With `O=C(c1c[nH]c2ccccc12)C(NCCc1cn[nH]c1)c1ccccc1` (single isomer, unassigned) [34 Isomer 2], under setting [1], the negative logarithm of the IC50 (pIC50) was 4.61.

Regarding `CN1CCC(c2ccc3c(C(=O)C(NCCc4ccc(C(N)=O)cc4)c4ccccc4)c[nH]c3c2)CC1` (single isomer, unassigned) [178 Isomer 1], the pIC50 under setting [1] was less than 5.30.

With `O=C(c1c[nH]c2cc(OCc3ccccc3)ccc12)C(NCCc1ccc(F)cc1)c1ccccc1` (single isomer, unassigned) [61 Isomer 1], the negative-log IC50 (pIC50) under setting [1] is less than 4.52.

Take `NC(=O)c1ccc(CCNC(C(=O)c2c[nH]c3cc(-c4cnn(CCO)c4)ccc23)c2ccccc2)cc1` (single isomer, unassigned) [182 Isomer 1]: the negative-log IC50 (pIC50) under setting [1] was less than 5.30.

Regarding `CCNC(=O)c1ccc2c(C(=O)C(NCCc3ccc(C#N)cc3)c3ccccc3)cnn2c1` (single isomer, unassigned) [73 Isomer 1], under setting [1], the pIC50 was 6.54.

With `Cc1cnc(-c2ccc3c(C(=O)C(NCCc4ccc(Cl)cc4)c4ccccc4)c[nH]c3c2)[nH]1` (single isomer, unassigned) [109 Isomer 1], the pIC50 under setting [1] is 5.58.

As to `C[C@@H](O)CNC(=O)c1ccc2c(C(=O)C(NCCc3ccc(C#N)cc3)c3ccccc3)c[nH]c2c1` (single isomer, unassigned) [173 Isomer 2], under setting [1], the pIC50 was 7.68.

Regarding `Cn1cc(-c2ccc3c(C(=O)C(NCCc4ccc(C(=O)O)cc4)c4ccccc4)c[nH]c3c2)cn1` (single isomer, unassigned) [138 Isomer 2], the pIC50 under setting [1] is 5.37.

As for `CNC(=O)c1cccc2c(C(=O)C(NCCc3ccc(Cl)cc3Cl)c3ccccc3)c[nH]c12` (single isomer, unassigned) [147 Isomer 1], the pIC50 under setting [1] is less than 4.52.

Turning to `CCC(CNC(C(=O)c1c[nH]c2ccccc12)c1ccccc1)c1ccc(Cl)cc1` (single isomer, unassigned) [59 Isomer 2], the pIC50 under setting [1] was 4.86.

On to `N#Cc1ccc(CCNC(C(=O)c2c[nH]c3cc(-c4cnn(CCO)c4)ccc23)c2ccccc2)cc1` (single isomer, unassigned) [95 Isomer 1], for which the pIC50 under setting [1] is 6.09.

For `NS(=O)(=O)c1ccc(CCNC(C(=O)c2c[nH]c3c(Cl)c(Cl)ccc23)c2ccccc2)cc1` (single isomer, unassigned) [55 Isomer 2], the pIC50 under setting [1] is less than 4.52.

For `N#Cc1ccc(CCNC(C(=O)c2c[nH]c3cc(C(=O)NCCN4CCCC4)ccc23)c2ccccc2)cc1` (single isomer, unassigned) [176 Isomer 1], the negative-log IC50 (pIC50) under setting [1] is 7.27.
